Data from US5206435A, “4-amino-2-cyclopentene-1-methanol” (priority 1988, dated 1993).
Entries after “also recorded” stand apart in the source; their conditions may differ. One block for each compound: values may come before it.

How the values were obtained:
[1] = tested on: HIV; assay: anti-HIV activity in MT4 cells; assay type: cell-based; settings: Human immunodeficiency virus 1, average of 10 determinations
Procedure: (1S,4R)-cis-4-[2-amino-6-(cyclopropylamino)-9H-purin-9-yl]-2-cyclopentene-1-methanol was tested for anti-HIV activity in MT4 cells according to the method described by Averett, D. R., J. Virol.

[2] = tested on: HIV; assay: activity against HIV infections (general statement)
[3] = tested on: HBV; assay: activity against HBV infections (general statement); design: species or system hepatitis B virus
[4] = tested on: bone marrow progenitor cells; assay: toxicity against bone marrow progenitor cells; assay type: cell-based; settings: compared with 3'-azido-3'-deoxythymidine (zidovudine)
[5] = penetration of the blood-brain barrier upon administration; assay type: in vivo
[6] = tested on: HBV; assay: anti-HBV activity in the human HBV producer cell line of HepG2, 2.2.15; assay type: cell-based, hepatitis B virus; settings: at 100 μM; HepG2, 2.2.15 cells
Procedure: The human HBV producer cell line of HepG2,2.2.15, described and characterised by Sells et al., PNAS 84: 1005, 1987 and J.Virol.
To test compounds for anti-HBV activity, monolayer cultures were treated with the test compound: 50-200 μM for ten days. Supernatant media containing extracellular virion DNA (Dane particles) were harvested on days three, six and ten, treated with proteinase K (1 mg/mL) and sodium dodecyl sulfate (1%), and incubated at 50° C. for one hour. DNA was extracted with equal volumes of phenol followed by chloroform and then precipitated by ammonium acetate and propanol. The DNA precipitate was dissolved and collected on nitrocellulose using the procedure of Schleicher and Schuell (S&S, 10 Optical Ave., Keene, N.H. 03431, Publication #700, 1987), and treated as described by Southern, J.Mol.Biol., 98, 503, 1975. […] After precipitation by ammonium acetate and propanol, the intracellular DNA precipitate was dissolved, cut by restriction endonuclease, Hind III, applied to agarose gel and then treated as described by Southern to determine the quantity of replicative intermediate forms. The antiviral effect of the drug was determined by measuring at least a 100-fold reduction of the amount of Dane particles extruded into the culture medium and a similar decrease in the intracellular replicative intermediates.

IC50 [1]: 4 ± 1.4 µM | levels of the compounds or active metabolites in the central nervous system [5]: high levels
Compound: Nc1nc(NC2CC2)c2ncn([C@H]3C=C[C@@H](CO)C3)c2n1 [Compound 1, (1S,4R)-cis-4-[2-amino-6-(cyclopropylamino)-9H-purin-9-yl]-2-cyclopentene-1-methanol]
activity against HIV infections [2]: especially potent activity; also recorded: exceptionally potent activity | activity against HBV infections [3]: especially potent activity; also recorded: exceptionally potent activity | toxicity against bone marrow progenitor cells [4]: significantly lower toxicity | blood-brain barrier penetration [5]: capable of penetrating the blood-brain barrier

Compound: CN(c1nc(N)nc2c1ncn2[C@H]1C=C[C@@H](CO)C1)C1CC1 [Compound 3, (1S,4R)-cis-4-[2-amino-6-(N-cyclopropyl-N-methylamino)-9H-purin-9-yl]-2-cyclopentene-1-methanol]
anti-HBV activity [6]: potent anti-HBV activity | activity against HIV infections [2]: especially potent activity | activity against HBV infections [3]: especially potent activity | blood-brain barrier penetration [5]: capable of penetrating the blood-brain barrier | levels of the compounds or active metabolites in the central nervous system [5]: high levels
